Entries after “also recorded” stand apart in the source; their conditions may differ.
Columns and labels:
p53 [1] = assay: Western blot: RV-mediated decline in the level of p53 in RCFs; assay type: cell-based, rabbit
Procedure: (§1) FIG. 1A is a photograph of a western blot showing the impact of Nutlin-3a on RV-mediated signaling events. Primary rabbit conjunctival fibroblasts (RCFs) were pre-treated with either Nutlin-3a (10 μM), or vehicle for 30 min and then exposed to either RV (diluted 1:3 in Dulbecco's Modified Eagle Medium (DMEM)), or DMEM for 2 hr. The resulting cell lysates were subjected to western blot analysis using the indicated antibodies. The numbers are a ratio of p-PDGFRα/PDGFRα, p-Akt/Akt or p53/RasGAP (Ras GTPase) activating protein. […] FIG. 1B is a bar chart showing the impact of Nutlin-3a on RV-mediated contraction. RCFs were subjected to the collagen contraction assay as described above. Nutlin-3a (10 μM) or vehicle was included as indicated. The data were subjected to a paired t test; “*” denoted a statistically significant difference.
FIGS. 8A-8B include a series of photographs showing the minimum effective dose and maximum tolerated dose of Nutlin-3a. FIG. 8A is a series of photomicrographs of western blots showing RCFs pretreated with the indicated concentrations of Nutlin-3a for 30 min, and then exposed to RV (diluted 1:3 in DMEM) for 2 hours. […]
(§2) Cells were grown to 90% confluence in serum-containing medium, and then incubated for 24 hr in medium without serum. […] Signal intensity was determined by densitometry and analyzed with the Quantity One (Bio-Rad) software.

PDGFRα = assay: Western blot: RV-induced phosphorylation of PDGFRα in RCFs; assay type: cell-based, rabbit; details: Nutlin-3a 10 μM, RV 2 hr
Procedure: as §1
(§3) Cells were grown to 90% confluence in serum-containing medium, and then incubated for 24 hr in medium without serum. Cells were stimulated (as detailed for each experiment), washed twice with ice-cold phosphate buffered saline (PBS), and lysed in extraction buffer (10 mM Tris-HCl, pH 7.4, 5 mM EDTA, 50 mM NaCl, 50 mM NaF, 1% Triton X-100, 20 μg/ml aprotinin, 2 mM Na3VO4, 1 mM phenylmethylsulfonyl fluoride). […] Signal intensity was determined by densitometry and analyzed with the Quantity One (Bio-Rad) software.

Akt = assay: Western blot: RV-induced activation of Akt in RCFs; assay type: cell-based, rabbit; details: Nutlin-3a 10 μM, RV 2 hr
Procedure: as §1, §3

[2] = system: primary rabbit conjunctival fibroblasts (RCFs); assay: Collagen I contraction assay, RV-induced, RCFs; assay type: cell-based; details: Nutlin-3a 10 μM, gel measured on day 3
Procedure: as §1
(§4) Cells were trypsinized, washed and resuspended in 1.5 mg/ml of neutralized collagen I (INAMED, Fremont, Calif.) (pH 7.2) at a density of 1×10^6 cells/ml for RPEM or 5×10^4 cells/ml for RCFs. The mixture was aliquoted into wells of a 24-well plate that had been preincubated overnight with 5 mg/ml bovine serum albumin in PBS. […] The media were replaced every day, and the gel diameter was measured on day 3. The gel area was calculated using the formula πr2, where r is the radius of the gel.

[3] = system: primary rabbit conjunctival fibroblasts (RCFs); assay: Maximum tolerated dose in cultured RCFs; assay type: cell-based; details: RCFs in DMEM+5% FBS, medium replaced every 24 hours, day 3
Procedure: FIGS. 8A-8B include a series of photographs showing the minimum effective dose and maximum tolerated dose of Nutlin-3a. FIG. 8A is a series of photomicrographs of western blots showing RCFs pretreated with the indicated concentrations of Nutlin-3a for 30 min, and then exposed to RV (diluted 1:3 in DMEM) for 2 hours. Cells were lysed and resulting lysates were subjected to western blot analysis using the indicated antibodies. The data shown are representative of three independent experiments. FIG. 8B is a series of photographs showing RCFs grown to near confluence in DMEM+10% FBS, the medium was replaced with DMEM+5% FBS+the indicated concentration of Nutlin-3a. The medium was replaced every 24 hours, and the photographs were taken on day 3. The data shown are representative of two independent experiments. The scale bar is 50 μm.

retina = assay: Retinal toxicity after intravitreal injections in rabbits; assay type: in vivo; details: multiple intravitreal injection of up to 20 micromolar, day 0, 2 and 4; fundus exams to day 14, histology
Procedure: FIGS. 9A-9B include a series of photographs showing epiretinal membranes from rabbits subjected to the PVR protocol. Rabbits that underwent a gas vitrectomy were intravitreally injected with the indicated concentration of Nutlin-3a on day 0, 2 and 4. The rabbits underwent a fundus examination on day 1, 3, 5, 7 and 14. Following the last fundus exam rabbits were euthanized, eyes were enucleated and fixed in 10% formalin. Sections were prepared, stained with hematoxylin and eosin, and then photographed. Representative photos of a Nutlin-3a (FIG. 9A) and vehicle (FIG. 9B) injected eye are presented. Arrowheads and arrows point to the retina and epiretinal membrane, respectively; scale bar: 50 μm. The lack of the retinal pigment epithelial cell layer is an artifact related to processing of the tissue.

[4] = system: proliferative vitreoretinopathy (PVR); assay: Rabbit model for PVR (Fastenberg scale); assay type: in vivo, Dutch Belted rabbits
Procedure: (§5) FIGS. 2A-2B include a dot plot and a series of photomicrographs showing that Nutlin -3a prevented retinal detachment and elevated p53 in epiretinal membranes. FIG. 2A is a dot plot illustrating the impact of Nutlin-3a on experimental PVR. RCFs were used to induce PVR as described below. The indicated rabbits received no additional injections (none) or 0.1 cc injections of either vehicle, or Nutlin-3a (20 μM) on day 0, 2 and 4. The data were subjected to an unpaired t test or one way Analysis of Variance (ANOVA) test; “*” denoted a statistically significant difference. FIG. 2B is a series of photographs showing that Nutlin-3a enhanced expression of p53 in epiretinal membranes. At the end of the experiment (day 28), the eyes were enucleated, and paraffin sections of whole eyes were subjected to p53 immunohistochemistry. The arrows point to the epiretinal membrane (the arrowheads denote the retina and the brown color indicates p53). The left and right panels are from a Nutlin-3a injected animal, whereas the middle panel is from a rabbit treated with vehicle. The left and middle panels were stained with the p53 antibody, whereas the right panel was stained with non-immune IgG. The scale bar is 50 μm.
PVR was induced in Dutch Belted rabbits, purchased from Covance (Denver, Pa.), as previously described (Lei H et al., 2009 Invest Ophthalmol Vis Sci, 50:3394-3403). Briefly, a gas vitrectomy was performed by injecting 0.1 ml of perfluoropropane (C3F8) (Alcon, Fort Worth, Tex.) into vitreous. One week later, the right eye of rabbits was injected in one of two ways. For the experiment injecting RCFs expressing shRNAs, 0.1 ml of DMEM containing 1×10^5 RCFs that were modified as outlined in the legend were injected along with 0.1 ml rabbit platelet-rich plasma. For the Nutlin-3a experiment, all rabbits were injected with 0.1 ml of DMEM containing 1×10^5 unmodified RCFs, 0.1 ml rabbit platelet rich plasma and either not injected a third time, or injected with vehicle, or 0.1 ml of 200 μM Nutlin-3a. The vehicle or Nutlin-3a injection was repeated on day 3 and 5. The retinal status was evaluated with an indirect ophthalmoscope fitted with a +30 D fundus lens on day 1, 3, 5, 7, 14, 21 and 28. PVR was graded according to the Fastenberg scale of classification 41: stage 0, no disease; stage 1, epiretinal membrane; stage 2, vitreoretinal traction without retinal detachment; stage 3, localized retinal detachment (1-2 quadrants); stage 4, extensive retinal detachment (2-4 quadrants without complete detachment); stage 5, complete retinal detachment. On day 28, animals were sacrificed, and eyes were enucleated and frozen at −80° C.

p53 [5] = assay: p53 immunohistochemistry of epiretinal membranes from PVR rabbits; assay type: in vivo, rabbit; details: day 28, immunohistochemistry
Procedure: as §5
Rabbit eyeballs were fixed in 10% formalin for 48 hr and embedded in paraffin after dehydration. […]

p53 [6] = assay: Western blot: HV-mediated fall in the level of p53 in RPE cells from a human PVR membrane; assay type: cell-based; details: RPE cells from human epiretinal membrane, HV pool of 5 PVR patients diluted 1:3
From the text: (§6) FIGS. 7A-7B include a photograph of a western blot and a bar chart showing p53 attenuated human vitreous humor (HV)-driven collagen gel contraction. FIG. 7A is a photograph of a western blot showing the impact of Nutlin-3a on HV-mediated signaling events. Methods were the same as FIG. 3A, but the RPE cells from a human patient epiretinal membrane were used in place of RCF, and HV (a pool of vitreous from 5 PVR patients diluted 1:3 in DMEM) was used in place of RV. The data presented are representative of three independent experiments. FIG. 7B is a bar chart showing the impact of Nutlin-3a on HV-mediated contraction. This experiments were the same as FIG. 3B with the modification noted in FIG. 7A. The data were subjected to a paired t test. “*” denoted a statistically significant difference. The data shown are representative of three independent experiments.
(§7) RPEM cells are RPE cells derived from a human epiretinal membrane, as previously described (Wong C A et al., 2002 Can J Ophthalmol, 37:211-220). Primary rabbit conjunctival fibroblasts (RCFs) were obtained and cultured as described previously (Ikuno Y et al., 2002 Invest Ophthalmol Vis Sci, 43:2406-2411). […]
as §2

[7] = system: upstream signaling events; assay: Western blot: HV-mediated upstream signaling events in RPE cells from a human PVR membrane; assay type: cell-based; details: RPE cells from human epiretinal membrane, HV diluted 1:3
From the text: as §6, §7, §2

[8] = system: RPE cells isolated from a human PVR membrane; assay: Collagen contraction assay, HV-stimulated, RPE cells from a human PVR membrane; assay type: cell-based; details: RPE cells from human epiretinal membrane, HV diluted 1:3
From the text: as §6
RPEM cells are RPE cells derived from a human epiretinal membrane, as previously described (Wong C A et al., 2002 Can J Ophthalmol, 37:211-220). […]
as §4, with “RCFs.” for “RCFs. The mixture was aliquoted into wells of a 24-well plate that had been preincubated overnight with 5 mg/ml bovine serum albumin in PBS.”

sh GFP cells = assay: Collagen contraction assay, RV-induced, sh GFP RCFs; assay type: cell-based, rabbit; details: Imatinib 10 μM, day 3
From the text: (§8) FIGS. 10A-10B include a series of bar graphs showing that inhibiting PDGFRα kinase activity blocked RV-induced collagen contraction. The indicated RCFs (50,000 cells/ml) (FIG. 10A) or F cells (1 million cells/ml) (FIG. 10B) were subjected to a collagen contraction assays as described below. […] The panels below the bar graphs show photographs of representative gels; the data presented are representative of 3 independent experiments. The data were subjected to a paired t test; “*” denoted a statistically significant difference.
Cells were trypsinized, washed and resuspended in 1.5 mg/ml of neutralized collagen I (INAMED, Fremont, Calif.) (pH 7.2) at a density of 1×10^6 cells/ml for RPEM or 5×10^4 cells/ml for RCFs. The mixture was aliquoted into wells of a 24-well plate that had been preincubated overnight with 5 mg/ml bovine serum albumin in PBS. The collagen solution was solidified by incubating at 37° C. for 90 min, and overlaid with medium containing the desired agents. The media were replaced every day, and the gel diameter was measured on day 3. The gel area was calculated using the formula πr2, where r is the radius of the gel.

Fβ cells = assay: Collagen contraction assay, RV-induced, Fβ cells; assay type: cell-based, mouse; details: Imatinib 10 μM, day 3
From the text: as §8
(§9) RPEM cells are RPE cells derived from a human epiretinal membrane, as previously described (Wong C A et al., 2002 Can J Ophthalmol, 37:211-220). Primary rabbit conjunctival fibroblasts (RCFs) were obtained and cultured as described previously (Ikuno Y et al., 2002 Invest Ophthalmol Vis Sci, 43:2406-2411). RCFs that stably expressed the shRNA targeting vector specific for GFP, PDGFRα, p53 or PDGFRα and p53 were designated sh GFP, sh PDGFRα sh p53 and sh PDGFRα/p53, respectively.
as §4, with “RCFs.” for “RCFs. The mixture was aliquoted into wells of a 24-well plate that had been preincubated overnight with 5 mg/ml bovine serum albumin in PBS.”

Fα cells = assay: Collagen contraction assay, RV-induced, Fα cells; assay type: cell-based, mouse; details: Imatinib 10 μM, day 3
From the text: as §8, §9
as §4, with “RCFs.” for “RCFs. The mixture was aliquoted into wells of a 24-well plate that had been preincubated overnight with 5 mg/ml bovine serum albumin in PBS.”

| SMILES | RV-mediated decline in the level of p53 (p53 [1]; RCFs pre-treated with Nutlin-3a 10 μM 30 min, then RV (1:3 in DMEM) 2 hr) | minimum dose to prevent the RV-induced reduction of p53 (p53 [1]; RCFs pretreated 30 min, RV (1:3) 2 hours) [µM] | RV-induced phosphorylation of PDGFRα (PDGFRα) | RV-induced activation of Akt (Akt) | RV-mediated contraction of collagen gels [2] | maximum tolerated dose [3] [µM] | overt signs of retinal toxicity (retina) | animals that succumbed to even partial retinal detachment (stage 3 or 4) ([4]; by day 28, intravitreal Nutlin-3a injections) [%] | formation of epiretinal membranes (stage 1 and 2) ([4]; intravitreal Nutlin-3a injections, to day 28) | retinal detachment ([4]; series of intravitreal injections) | rabbits that developed vitreal traction (stage 2) ([4]; series of intravitreal injections, end of experiment (day 28)) [%] | p53 level in epiretinal membranes versus vehicle-injected controls (p53 [5]) | HV-induced fall in the level of p53 (p53 [6]) | upstream signaling events in HV-treated cells [7] | HV-stimulated contraction of RPE-containing collagen gels [8] | RV-induced contraction in sh GFP cells (sh GFP cells) | RV-induced contraction in cells expressing PDGFRβ (Fβ) (Fβ cells) | RV-stimulated contraction in cells expressing PDGFRα (Fα) (Fα cells) |
| --- | --- | --- | --- | --- | --- | --- | --- | --- | --- | --- | --- | --- | --- | --- | --- | --- | --- | --- |
| COc1ccc(C2=N[C@@H](c3ccc(Cl)cc3)[C@@H](c3ccc(Cl)cc3)N2C(=O)N2CCNC(=O)C2)c(OC(C)C)c1 (single isomer, unassigned) [Nutlin-3a] | effectively blocked | 2 | no effect | no effect | effectively blocked | 30 | did not produce overt signs of retinal toxicity | 0 | slowed formation of membranes; also recorded: did form membranes | completely prevented | 50 | higher | prevented the precipitous fall | without impacting upstream signaling events | inhibited | – | – | – |
| Cc1ccc(NC(=O)c2ccc(CN3CCN(C)CC3)cc2)cc1Nc1nccc(-c2cccnc2)n1 [Imatinib] | – | – | – | – | – | – | – | – | – | – | – | – | – | – | – | completely blocked | did not improve RV-induced contraction or generate sensitivity to Imatinib | erased |

From US11464773B2, “Nutlin-3a for treatment of proliferative vitreoretinopathy” (The Schepens Eye Research Institute, Inc., priority 2012, dated 2022)
